In publication PMC4350332 (Oncotarget, 2014):
pEC50, pIC50: −log10 of the molar value.

How the values were obtained:
PC-3 cells [1] = assay: Sulforhodamine B cell mass assay, PC-3 cells; format: cell-based
Method: Compound cytotoxicity was determined using the Sulforhodamine B assay for cells cultured as a monolayer as described previously (45). For spheroid growth experiments, PC-3 cells were seeded (500 cells/well) into 96 well round bottom plates (Corning Costar 7007) in RPMI-1640 media containing 2.5% (w/v) Matrigel (BD Biosciences). […] Spheroid volumes were determined by obtaining diameter measurements from images taken on a Zeiss Axiovert 200M inverted microscope using the axiovision software.

HSP-90 = target: T1, HSP-90 (Homo sapiens, UniProt P08238); assay: HSP-90 fluorescence polarization assay; format: binding; details: read-out: HSP-90 FP, IC50
T1 construct: made in house
T1 sequence (P08238 whole entry, species assumed): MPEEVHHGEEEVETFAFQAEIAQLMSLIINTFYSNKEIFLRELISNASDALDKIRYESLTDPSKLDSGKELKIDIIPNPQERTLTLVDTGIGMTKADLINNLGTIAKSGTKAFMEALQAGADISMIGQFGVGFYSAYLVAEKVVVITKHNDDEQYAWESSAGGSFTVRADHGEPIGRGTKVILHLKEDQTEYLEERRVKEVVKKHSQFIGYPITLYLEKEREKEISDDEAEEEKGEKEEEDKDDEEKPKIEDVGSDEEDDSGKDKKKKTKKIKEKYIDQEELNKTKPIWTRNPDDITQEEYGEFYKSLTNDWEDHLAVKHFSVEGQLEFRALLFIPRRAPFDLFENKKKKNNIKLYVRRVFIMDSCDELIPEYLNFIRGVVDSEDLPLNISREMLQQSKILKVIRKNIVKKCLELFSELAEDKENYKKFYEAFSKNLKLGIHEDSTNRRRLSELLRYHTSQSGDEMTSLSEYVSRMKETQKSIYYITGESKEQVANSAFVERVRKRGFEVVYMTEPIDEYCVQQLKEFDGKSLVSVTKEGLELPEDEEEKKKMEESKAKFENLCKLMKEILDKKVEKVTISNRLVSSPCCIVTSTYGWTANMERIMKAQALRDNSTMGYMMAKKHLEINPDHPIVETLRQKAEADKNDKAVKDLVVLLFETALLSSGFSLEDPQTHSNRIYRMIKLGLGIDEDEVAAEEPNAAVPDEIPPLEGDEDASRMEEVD
Method: The HSP-90ß FP assay was conducted as previously described.

PC-3 cells [2] = assay: Metabolite analysis (L-lactate, D-glucose, pyruvate, L-alanine) in PC-3 cells; format: cell-based; details: for Reduction in media L-lactate levels: 1 h; for Intracellular pyruvate levels: 24 h
Method: Pyruvate, L-lactate, D-glucose and L-alanine levels were determined using commercially available assay kits (Abcam) as per the manufacturer's instructions.

PC-3 cells [3] = assay: Oxygen consumption (oxytherm oxygen electrode); format: cell-based
Method: Oxygen consumption was measured using an ‘oxytherm’ oxygen electrode system (Hansatech). PC-3 cells were trypsinized and re-suspended to a density of 1.7×10^6cells/mL in RPMI-1640 media containing 10% FCS. Compounds or DMSO were then added to 1.5 mL aliquots of this suspension to yield the required final concentration followed by a 1 h incubation period in a CO2incubator at 37°C. The compound/vehicle treated cells were then transferred to the oxygen electrode chamber (pre-equilibrated to 37°C). Oxygen consumption was measured over a 30 minute period and the rate of oxygen consumption determined by plotting oxygen concentration against time and obtaining the slope of the line using the linear fit function within excel.

[4] = tested on: hTert immortalized human foreskin fibroblast (HFF) cell line; assay: Glycolytic activity (L-lactate, D-glucose) in HFF cells; format: cell-based; details: 6 h, 0.25 g/L D-glucose, 2% dialyzed FCS; VER-246608 effect only at top concentration (27 μM)
Method: Pyruvate, L-lactate, D-glucose and L-alanine levels were determined using commercially available assay kits (Abcam) as per the manufacturer's instructions. […]
transformed and additional cancer cell lines. A, The indicated cell lines were seeded into […]
relevant media containing either 2 g/L D-glucose or D-galactose for 96 h. Cell mass was determined using the sulforhodamine B assay. Results are expressed as the percentage change vs DMSO control values for cells incubated in D-glucose containing media. B, HFF cells were seeded into 96 well plates at a density of 1x10^4 cells per well in 96 well plates. […]
and Nov3r (in DMEM media containing 0.25 g/L D-glucose and 2% dialyzed FCS) for 6 h, followed by the removal of cell culture media for analysis of L-lactate and D-glucose. At the end of the experiment the remaining media was aspirated and the cells transferred to a - 80 °C freezer for subsequent analysis of p(Ser293)E1α levels by MSD ELISA. C. K562 cells […]
analysis of pyruvate dehydrogenase (PDH) activity in cell lysates using a commercially available ELISA-based assay kit (Abcam). Results are expressed as a percentage of the PDH reaction rate in DMSO treated cells. D, Jurkat cells ([…]) were pre-treated in RPMI- […]
suspension in glucose-free RPMI-1640 media supplemented with 2 g/L 1,6-13C-D-Glucose followed by kinetic acquisition of 13C-NMR spectra at 10 min intervals. […]

[5] = tested on: p(Ser^293)E1α in PC-3 cells; assay: Immunoblot time course of biomarker suppression in PC-3 cells; format: cell-based; details: Fig. 2F
Method: Cell lysates were prepared by washing cells with PBS followed by the addition of lysis buffer (2% SDS, 50 mM TRIS-pH 6.8) directly to the well. Equal amounts of lysate were loaded onto pre-cast 4-12% SDS-PAGE gels (Life technologies) followed by transfer to PVDF membrane. The membranes were blocked for 1 h in TBST containing 5% non-fat dried milk, followed by a 2 h incubation with the relevant primary antibody: PDH phospho(Ser^293)E1α (Genescript, custom rabbit polyclonal antibody), 1:600; PDH E1α (Abcam), 1:1000; PDP-1 (Sigma), 1:2000; PDK-1 (ENZO), 1:1000; HSP-70 (Santa Cruz), 1:5000; β-tubulin (Cell signaling technology), 1:1000. The membranes were then incubated with HRP-linked goat anti-rabbit or anti-mouse secondary antibodies (Santa Cruz) followed by visualization of immunoreactive bands by the addition of a chemiluminescent substrate (Millipore).

[6] = tested on: HSP-70 induction in PC-3 cells (biomarker for HSP-90 inhibition); assay: HSP-70 in-cell ELISA assay; format: cell-based; details: for pEC50: PD marker (ELISA), PC-3 cells, 24 h
Method: DELFIA assay reagents (assay buffer, enhancement solution and europium-labeled secondary antibody) were obtained from Perkin Elmer (MD, USA). PC-3 cells were seeded (1×10^4 per well) into 96 well black-walled cell culture plates. The following day, the cells were treated with a 10 point tripling dilution series of test compound for 24 h followed by fixation with TBS containing 4% formaldehyde for 15 min at RT. The cells were then permeabilized the addition of permeabilization buffer (TBS containing 1% triton-X-100) and a further 15 min incubation at RT. The cells were then washed 3X with TBS, followed by the addition of quenching solution (TBS containing 1% H2O2), a 20 min incubation at RT and a further 3X wash with TBS. The permeabilized cells were then incubated for 30 minutes with blocking buffer (TBS containing 5% (w/v) dried milk) followed by a 90 min incubation with HSP-70 primary antibody (ENZO; 1:1000 dilution in TBS containing 200 μg/ml BSA). The wells were then washed 3X with wash buffer (TBS containing 0.1% Tween-20), followed by the addition of europium-labeled anti-mouse secondary antibody (1:1000 in DELFIA assay buffer) and a 1 h incubation at RT. The wells were then washed 3X with wash buffer followed by the addition of enhancement solution.

Question: Which Cytotoxicity/cytostasis-induction (PC-3 cells [1]; any of the culture conditions, up to a top concentration of 80 μM) does the source give for `C[C@@H]1CN(C(=O)[C@](C)(O)C(F)(F)F)[C@@H](C)CN1C(=O)c1ccc(C#N)cc1` [Nov3r, reference compound] here?
Answer: no evidence of cytotoxicity/cytostasis-induction

Question: And the pIC50 (HSP-90)?
Answer: < 3.70

Question: And the “Change in media L-lactate levels” value (PC-3 cells [2]; PC-3, all concentrations tested, 0.25 g/L D-glucose, 2% dialyzed FCS)?
Answer: no change

Question: What about the “Effect on oxygen consumption rate” value (PC-3 cells [3]; concentrations ≥ 1μM (3 μM in Fig. 3B)) of the same compound?
Answer: no discernible effect

Question: And the “Effect on glycolytic activity in HFF cells” value [4]?
Answer: did not alter glycolytic activity

Question: And the “Period of time to achieve maximal biomarker suppression” value [5]?
Answer: 16 min

Question: And the pEC50 [6]?
Answer: < 4.10

Question: What does the source list for `Cc1cnc(Cl)nc1-c1ccc(N(Cc2ccc(CNC(=O)C(F)F)cc2)C(=O)c2ccc(O)cc2O)cc1` [VER-246608]?
Answer: Effect on growth in serum-free media or 0.1% serum (PC-3 cells [1]; PC-3, 20 μM, 120 h, 0% or 0.1% FCS): complete suppression of growth; Reduction in cell mass vs DMSO control (PC-3 cells [1]; PC-3, 20 μM, 120 h, D-glucose depletion with 15 mg/L L-glutamine): 50%; Reduction in growth (PC-3 cells [1]; PC-3, 20 μM, 120 h, serum depleted conditions (0.5% FCS)): 70%; pIC50 (HSP-90): < 4.00; Reduction in media L-lactate levels (PC-3 cells [2]; PC-3, 9 μM, 0.25 g/L D-glucose, 2% dialyzed FCS): 21%; Intracellular pyruvate levels (PC-3 cells [2]; PC-3, 20 μM, D-glucose/L-glutamine and serum depleted conditions): marked reduction; Intracellular pyruvate levels (PC-3 cells [2]; PC-3, 20 μM, standard culture conditions): no change; Extracellular L-alanine levels (PC-3 cells [2]; PC-3, 20 μM, standard and low serum culture conditions): further substantial decrease; Reduction in media L-lactate levels (PC-3 cells [2]; PC-3, 27 μM, 0.25 g/L D-glucose, 2% dialyzed FCS): 42%; Extracellular L-lactate levels (PC-3 cells [2]; PC-3, 24 h, 10 and 20 μM, D-glucose/L-glutamine-depleted media): further reduction; L-lactate production vs DMSO (PC-3 cells [2]; PC-3, 24 h, normal or low serum media): not altered; Effect on D-glucose consumption (PC-3 cells [2]; PC-3, same concentrations that reduced L-lactate production (9 and 27 μM)): decreased D-glucose consumption; Increase in the rate of oxygen consumption (PC-3 cells [3]; 20 μM, 1 h pre-treatment): 66%; Effect on glycolytic activity in HFF cells [4]: decrease in extracellular L-lactate and D-glucose levels; Period of time to achieve maximal biomarker suppression [5]: 16 min; pEC50 ([6]; Homo sapiens): < 4.10; Induction of HSP-70 in PC-3 cells ([6]; biomarker for HSP-90 inhibition): lack of a detectable induction
